This is an account of results in ChEMBL document CHEMBL1152560, “Substituted 2-arylbenzothiazoles as kinase inhibitors: hit-to-lead optimization” (Bioorg Med Chem, 2009).

Assay [1] concerns the target Serine/threonine-protein kinase Nek6 (Homo sapiens) (UniProt Q9HC98). Put plainly: Residual activity of NEK6 at 1 uM by microplate scintillation counting.
In assay [2] the target is SRSF protein kinase 3 (Homo sapiens) (UniProt Q9UPE1). Put plainly: Residual activity of STK23 at 10 uM by microplate scintillation counting.
SRSF protein kinase 3 (Homo sapiens), sequence (Q9UPE1 whole entry): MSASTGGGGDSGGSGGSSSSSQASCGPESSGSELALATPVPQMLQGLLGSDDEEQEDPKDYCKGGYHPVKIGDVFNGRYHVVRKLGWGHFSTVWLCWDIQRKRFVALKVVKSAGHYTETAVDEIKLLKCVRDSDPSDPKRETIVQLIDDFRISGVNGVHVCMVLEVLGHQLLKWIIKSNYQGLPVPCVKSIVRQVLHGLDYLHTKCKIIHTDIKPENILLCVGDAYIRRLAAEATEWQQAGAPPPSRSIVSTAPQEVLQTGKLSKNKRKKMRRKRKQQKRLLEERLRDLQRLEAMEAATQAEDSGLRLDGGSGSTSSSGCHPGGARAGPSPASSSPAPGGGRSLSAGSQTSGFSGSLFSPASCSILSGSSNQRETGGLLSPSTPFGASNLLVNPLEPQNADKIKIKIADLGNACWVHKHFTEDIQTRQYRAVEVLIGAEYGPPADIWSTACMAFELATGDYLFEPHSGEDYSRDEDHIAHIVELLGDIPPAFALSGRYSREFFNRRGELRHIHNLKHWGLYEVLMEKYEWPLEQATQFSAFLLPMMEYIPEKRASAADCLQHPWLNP
Assay [3] deals with High affinity nerve growth factor receptor (Homo sapiens) (UniProt P04629). Put plainly: Residual activity of TRK-A at 10 uM by microplate scintillation counting.
Assay [4] addresses Calcium/calmodulin-dependent protein kinase type 1D (Homo sapiens) (UniProt Q8IU85). Nature of the assay: Residual activity of CAMK1D at 10 uM by microplate scintillation counting.
The target of assay [5] is Misshapen-like kinase 1 (Homo sapiens) (UniProt Q8N4C8). Nature of the assay: Residual activity of MINK1 at 10 uM by microplate scintillation counting.
Misshapen-like kinase 1 (Homo sapiens), sequence (Q8N4C8 whole entry, looked up): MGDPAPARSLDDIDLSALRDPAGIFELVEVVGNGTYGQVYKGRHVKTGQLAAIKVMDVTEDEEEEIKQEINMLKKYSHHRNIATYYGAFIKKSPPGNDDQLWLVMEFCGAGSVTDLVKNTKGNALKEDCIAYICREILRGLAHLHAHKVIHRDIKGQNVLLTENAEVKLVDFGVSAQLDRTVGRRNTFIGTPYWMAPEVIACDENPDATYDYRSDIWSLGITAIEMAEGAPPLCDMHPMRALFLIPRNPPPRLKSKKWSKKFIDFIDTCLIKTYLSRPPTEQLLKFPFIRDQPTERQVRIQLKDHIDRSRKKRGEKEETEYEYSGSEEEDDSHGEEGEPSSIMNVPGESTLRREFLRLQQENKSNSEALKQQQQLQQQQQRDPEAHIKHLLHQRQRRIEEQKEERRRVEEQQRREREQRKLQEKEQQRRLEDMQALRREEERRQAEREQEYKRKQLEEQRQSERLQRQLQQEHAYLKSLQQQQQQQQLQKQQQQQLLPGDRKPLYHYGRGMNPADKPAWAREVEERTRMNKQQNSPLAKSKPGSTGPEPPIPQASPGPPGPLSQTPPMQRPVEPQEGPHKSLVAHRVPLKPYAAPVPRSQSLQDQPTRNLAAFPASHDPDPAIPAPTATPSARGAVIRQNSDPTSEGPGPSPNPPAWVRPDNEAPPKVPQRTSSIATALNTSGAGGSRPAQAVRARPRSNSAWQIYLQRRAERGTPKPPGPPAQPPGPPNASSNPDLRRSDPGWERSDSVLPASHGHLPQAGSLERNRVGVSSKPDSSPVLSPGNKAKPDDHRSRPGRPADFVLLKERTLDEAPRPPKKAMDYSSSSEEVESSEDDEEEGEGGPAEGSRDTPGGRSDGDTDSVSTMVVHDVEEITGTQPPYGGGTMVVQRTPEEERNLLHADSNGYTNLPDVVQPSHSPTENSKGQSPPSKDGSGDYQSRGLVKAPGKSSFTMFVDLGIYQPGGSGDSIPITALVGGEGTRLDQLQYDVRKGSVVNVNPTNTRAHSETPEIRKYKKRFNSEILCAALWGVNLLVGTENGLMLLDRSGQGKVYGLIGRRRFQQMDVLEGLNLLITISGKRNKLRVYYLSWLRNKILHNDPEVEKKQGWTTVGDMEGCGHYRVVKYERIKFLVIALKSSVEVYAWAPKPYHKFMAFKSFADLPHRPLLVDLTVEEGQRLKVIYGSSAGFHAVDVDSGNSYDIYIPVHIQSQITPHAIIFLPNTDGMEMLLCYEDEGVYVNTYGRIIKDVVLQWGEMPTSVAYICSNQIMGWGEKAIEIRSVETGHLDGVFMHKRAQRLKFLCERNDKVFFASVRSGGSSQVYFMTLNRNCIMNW
Assay [6] concerns the target T1, Protein kinase C epsilon type (Homo sapiens) (UniProt Q02156).
T1 sequence (whole entry): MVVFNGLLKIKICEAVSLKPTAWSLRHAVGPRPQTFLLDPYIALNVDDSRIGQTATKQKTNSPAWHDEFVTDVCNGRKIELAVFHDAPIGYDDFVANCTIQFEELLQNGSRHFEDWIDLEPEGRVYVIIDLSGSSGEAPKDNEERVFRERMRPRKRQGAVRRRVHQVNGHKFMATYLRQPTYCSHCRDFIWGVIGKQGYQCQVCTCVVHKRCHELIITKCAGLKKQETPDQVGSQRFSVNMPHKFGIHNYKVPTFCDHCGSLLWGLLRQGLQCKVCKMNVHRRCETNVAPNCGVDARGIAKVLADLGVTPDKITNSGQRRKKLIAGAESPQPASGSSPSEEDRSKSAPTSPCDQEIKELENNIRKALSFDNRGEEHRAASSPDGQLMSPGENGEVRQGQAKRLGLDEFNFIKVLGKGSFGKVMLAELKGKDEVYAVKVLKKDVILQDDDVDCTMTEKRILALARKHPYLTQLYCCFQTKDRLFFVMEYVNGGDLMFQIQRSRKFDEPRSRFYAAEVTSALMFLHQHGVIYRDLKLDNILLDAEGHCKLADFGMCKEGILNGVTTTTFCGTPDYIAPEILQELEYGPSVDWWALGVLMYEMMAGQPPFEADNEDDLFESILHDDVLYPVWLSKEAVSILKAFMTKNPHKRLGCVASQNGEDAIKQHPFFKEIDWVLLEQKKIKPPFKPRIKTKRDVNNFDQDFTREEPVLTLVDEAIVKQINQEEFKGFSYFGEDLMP
Nature of the assay: Residual activity of PKCepsilon at 0.1 uM by microplate scintillation counting.

Assay [7] has as its target Mitogen-activated protein kinase kinase kinase 14 (Homo sapiens) (UniProt Q99558). Nature of the assay: Residual activity of NIK at 1 uM by microplate scintillation counting.
The target of assay [8] is High affinity nerve growth factor receptor (Homo sapiens) (UniProt P04629). Put plainly: Residual activity of TRK-A at 1 uM by microplate scintillation counting.
Assay [9] addresses Tyrosine-protein kinase Yes (Homo sapiens) (UniProt P07947). Nature of the assay: Residual activity of YES at 10 uM by microplate scintillation counting.
The target of assay [10] is Insulin receptor-related protein (Homo sapiens) (UniProt P14616). Put plainly: Residual activity of INSRR at 10 uM by microplate scintillation counting.
Insulin receptor-related protein (Homo sapiens), sequence (P14616 27-742 limits assumed): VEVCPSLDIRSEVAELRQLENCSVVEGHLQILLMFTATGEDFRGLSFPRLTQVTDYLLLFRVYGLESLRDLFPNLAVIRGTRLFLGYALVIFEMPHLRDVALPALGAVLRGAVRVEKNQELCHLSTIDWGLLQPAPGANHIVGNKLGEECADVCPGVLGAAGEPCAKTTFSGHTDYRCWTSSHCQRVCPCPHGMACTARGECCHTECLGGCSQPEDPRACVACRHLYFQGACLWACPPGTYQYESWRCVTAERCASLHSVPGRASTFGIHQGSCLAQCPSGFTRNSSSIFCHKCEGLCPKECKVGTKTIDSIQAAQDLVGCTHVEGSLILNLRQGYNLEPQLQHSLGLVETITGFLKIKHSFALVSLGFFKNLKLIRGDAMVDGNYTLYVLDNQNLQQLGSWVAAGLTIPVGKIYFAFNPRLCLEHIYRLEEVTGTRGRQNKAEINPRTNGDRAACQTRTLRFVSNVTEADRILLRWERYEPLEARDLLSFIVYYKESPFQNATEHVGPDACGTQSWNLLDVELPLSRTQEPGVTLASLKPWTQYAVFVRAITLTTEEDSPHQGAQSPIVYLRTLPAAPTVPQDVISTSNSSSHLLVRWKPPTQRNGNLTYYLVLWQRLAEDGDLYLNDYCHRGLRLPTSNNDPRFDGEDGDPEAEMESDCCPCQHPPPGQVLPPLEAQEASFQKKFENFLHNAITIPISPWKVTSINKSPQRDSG
Insulin receptor-related protein (Homo sapiens), sequence (P14616 747-1297 limits assumed): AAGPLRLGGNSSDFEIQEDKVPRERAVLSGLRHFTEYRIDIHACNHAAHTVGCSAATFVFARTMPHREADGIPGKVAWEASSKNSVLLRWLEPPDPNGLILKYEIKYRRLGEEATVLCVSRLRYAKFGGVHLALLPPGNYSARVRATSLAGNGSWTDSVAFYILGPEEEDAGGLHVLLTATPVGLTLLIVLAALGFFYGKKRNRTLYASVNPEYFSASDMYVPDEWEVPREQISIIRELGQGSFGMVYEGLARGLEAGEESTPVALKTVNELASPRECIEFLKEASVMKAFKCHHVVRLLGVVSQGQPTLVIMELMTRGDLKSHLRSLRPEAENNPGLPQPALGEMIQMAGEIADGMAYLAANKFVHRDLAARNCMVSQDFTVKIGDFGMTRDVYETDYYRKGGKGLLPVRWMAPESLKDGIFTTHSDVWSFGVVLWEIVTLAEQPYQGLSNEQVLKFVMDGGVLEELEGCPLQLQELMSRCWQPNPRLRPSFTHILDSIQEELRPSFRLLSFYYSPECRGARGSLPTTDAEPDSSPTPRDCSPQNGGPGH
Assay [11] concerns the target Serine/threonine-protein kinase SIK2 (Homo sapiens) (UniProt Q9H0K1). Nature of the assay: Residual activity of SNF1LK2 at 10 uM by microplate scintillation counting.
The target in assay [12] is CDK8/Cyclin C (Homo sapiens) (UniProt P49336+P24863). Put plainly: Residual activity of CDK8/Cyclin C at 10 uM by microplate scintillation counting. The format is protein-complex assay.
Assay [13] concerns the target Calcium/calmodulin-dependent protein kinase type II subunit alpha (Homo sapiens) (UniProt Q9UQM7). Put plainly: Residual activity of CAMK2A at 10 uM by microplate scintillation counting.
Assay [14] has as its target Tyrosine-protein kinase Yes (Homo sapiens) (UniProt P07947). Put plainly: Residual activity of YES at 1 uM by microplate scintillation counting.
Assay [15] concerns the target T2, Serine/threonine-protein kinase VRK1 (Homo sapiens) (UniProt Q99986).
T2 sequence (whole entry): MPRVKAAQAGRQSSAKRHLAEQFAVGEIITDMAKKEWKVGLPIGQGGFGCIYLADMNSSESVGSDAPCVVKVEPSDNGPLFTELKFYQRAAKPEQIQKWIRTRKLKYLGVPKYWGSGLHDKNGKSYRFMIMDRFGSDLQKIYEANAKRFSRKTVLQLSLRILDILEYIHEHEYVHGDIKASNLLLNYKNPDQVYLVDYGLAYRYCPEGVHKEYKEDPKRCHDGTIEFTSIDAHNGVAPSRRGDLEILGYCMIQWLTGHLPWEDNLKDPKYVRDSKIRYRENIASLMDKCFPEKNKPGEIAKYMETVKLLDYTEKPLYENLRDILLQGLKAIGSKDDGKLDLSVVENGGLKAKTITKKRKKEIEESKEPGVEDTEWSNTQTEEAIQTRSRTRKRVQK
Nature of the assay: Residual activity of VRK1 at 10 uM by microplate scintillation counting.

For assay [16], the target named is T3, Serine/threonine-protein kinase TBK1 (Homo sapiens) (UniProt Q9UHD2).
T3 sequence (whole entry): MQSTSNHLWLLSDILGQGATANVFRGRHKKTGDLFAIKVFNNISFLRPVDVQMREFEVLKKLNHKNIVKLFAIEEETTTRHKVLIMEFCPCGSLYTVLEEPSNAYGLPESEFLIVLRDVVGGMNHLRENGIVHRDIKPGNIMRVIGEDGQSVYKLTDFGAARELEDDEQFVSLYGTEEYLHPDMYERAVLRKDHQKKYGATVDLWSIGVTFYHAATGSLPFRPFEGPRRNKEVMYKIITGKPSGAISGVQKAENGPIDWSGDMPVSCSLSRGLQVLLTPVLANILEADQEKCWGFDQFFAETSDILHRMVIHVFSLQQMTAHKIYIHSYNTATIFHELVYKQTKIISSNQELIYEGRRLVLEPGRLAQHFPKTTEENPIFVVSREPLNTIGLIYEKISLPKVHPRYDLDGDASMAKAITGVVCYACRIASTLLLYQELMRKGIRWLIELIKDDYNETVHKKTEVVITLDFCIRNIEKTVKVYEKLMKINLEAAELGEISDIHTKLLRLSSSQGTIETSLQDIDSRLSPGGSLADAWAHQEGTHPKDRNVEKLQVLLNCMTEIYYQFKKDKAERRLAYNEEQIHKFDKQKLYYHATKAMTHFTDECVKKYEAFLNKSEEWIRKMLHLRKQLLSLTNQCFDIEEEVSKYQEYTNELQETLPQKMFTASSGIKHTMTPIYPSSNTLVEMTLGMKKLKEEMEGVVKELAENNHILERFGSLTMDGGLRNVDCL
Nature of the assay: Residual activity of TBK1 at 0.1 uM by microplate scintillation counting.

The target of assay [17] is Cyclin-dependent kinase 7/ cyclin H (Homo sapiens) (UniProt P51946+P50613). Nature of the assay: Residual activity of CDK7/CyclinH/MAT1 at 1 uM by microplate scintillation counting. The format is protein-complex assay.

Calcium/calmodulin-dependent protein kinase type 1D (Homo sapiens), sequence (Q8IU85 whole entry, looked up): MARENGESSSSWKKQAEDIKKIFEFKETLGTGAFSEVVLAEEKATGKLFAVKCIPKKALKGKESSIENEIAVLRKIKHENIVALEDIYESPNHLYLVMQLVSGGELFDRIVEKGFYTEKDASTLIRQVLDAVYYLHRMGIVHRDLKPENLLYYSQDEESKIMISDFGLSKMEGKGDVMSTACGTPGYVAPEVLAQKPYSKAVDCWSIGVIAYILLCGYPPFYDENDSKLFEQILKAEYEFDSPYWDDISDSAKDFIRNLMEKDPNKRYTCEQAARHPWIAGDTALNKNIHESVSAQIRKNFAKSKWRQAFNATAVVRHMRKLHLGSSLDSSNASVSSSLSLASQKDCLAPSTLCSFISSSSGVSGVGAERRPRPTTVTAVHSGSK
Serine/threonine-protein kinase Nek6 (Homo sapiens), sequence (Q9HC98 whole entry): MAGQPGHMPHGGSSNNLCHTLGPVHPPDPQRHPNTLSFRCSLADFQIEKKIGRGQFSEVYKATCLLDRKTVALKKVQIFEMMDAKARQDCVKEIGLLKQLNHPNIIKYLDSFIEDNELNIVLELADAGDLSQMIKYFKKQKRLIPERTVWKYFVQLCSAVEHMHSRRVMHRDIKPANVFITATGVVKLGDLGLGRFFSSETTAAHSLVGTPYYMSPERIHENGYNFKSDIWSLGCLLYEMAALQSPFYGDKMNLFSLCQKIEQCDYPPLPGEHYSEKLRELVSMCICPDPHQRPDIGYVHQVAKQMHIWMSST
Tyrosine-protein kinase Yes (Homo sapiens), sequence (P07947 2-543 limits assumed): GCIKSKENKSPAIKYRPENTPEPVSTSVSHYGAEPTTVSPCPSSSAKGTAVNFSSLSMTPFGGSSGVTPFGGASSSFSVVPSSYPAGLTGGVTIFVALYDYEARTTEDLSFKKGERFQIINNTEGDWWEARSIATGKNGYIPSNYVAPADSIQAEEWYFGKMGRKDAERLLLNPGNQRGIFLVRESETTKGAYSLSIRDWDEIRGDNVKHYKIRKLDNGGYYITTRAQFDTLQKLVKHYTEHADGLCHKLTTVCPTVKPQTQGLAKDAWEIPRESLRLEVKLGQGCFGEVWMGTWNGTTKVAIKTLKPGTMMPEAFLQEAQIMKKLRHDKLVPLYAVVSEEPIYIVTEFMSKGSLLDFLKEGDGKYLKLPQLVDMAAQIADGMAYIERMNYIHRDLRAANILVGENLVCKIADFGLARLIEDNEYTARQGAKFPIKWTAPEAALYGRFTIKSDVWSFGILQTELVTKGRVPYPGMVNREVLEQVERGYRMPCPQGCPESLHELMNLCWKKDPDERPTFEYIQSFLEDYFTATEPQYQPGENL
Calcium/calmodulin-dependent protein kinase type II subunit alpha (Homo sapiens), sequence (Q9UQM7 whole entry): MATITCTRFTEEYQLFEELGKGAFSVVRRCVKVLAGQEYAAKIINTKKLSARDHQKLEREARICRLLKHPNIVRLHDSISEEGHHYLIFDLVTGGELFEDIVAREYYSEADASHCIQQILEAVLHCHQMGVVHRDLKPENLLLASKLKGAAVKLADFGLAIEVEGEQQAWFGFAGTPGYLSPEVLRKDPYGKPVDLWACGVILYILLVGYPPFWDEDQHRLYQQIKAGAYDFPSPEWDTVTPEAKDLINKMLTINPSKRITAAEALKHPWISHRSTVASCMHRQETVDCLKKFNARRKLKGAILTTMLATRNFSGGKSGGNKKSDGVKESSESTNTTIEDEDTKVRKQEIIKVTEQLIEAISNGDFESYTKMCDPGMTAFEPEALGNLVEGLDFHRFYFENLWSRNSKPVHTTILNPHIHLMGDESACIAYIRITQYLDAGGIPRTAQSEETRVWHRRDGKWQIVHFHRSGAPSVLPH

As for `COc1cc2c(Oc3ccc(-c4nc5ccccc5s4)cc3F)ncnc2cc1OCCCN1CCN(C)CC1`, the residual activity was 102% in assay [1]; 111% in assay [2]; 34% in assay [3]; 64% in assay [4]; 20% in assay [5]; 108% in assay [6]. The residual activity came out at 88% in assay [7]; 86% in assay [8]; 14% in [9]; 7% in assay [10]; 241% in assay [11]; 75% in assay [12]. Also, the residual activity came out at 21% in assay [13]; 49% in [14]; 126% in [15]; 94% in assay [16]; 87% in assay [17].
Take `COc1cc2c(Oc3ccc(-c4nc5ccccc5s4)cc3)ncnc2cc1OCCCN1CCN(C)CC1`: the residual activity in assay [1] was determined as 96%; in assay [2] it was 110%; in [3] it was 81%; in [4], 82%; in [5], 21%; in assay [6], 106%. For the same molecule, the residual activity was 85% in [7]; 83% in assay [8]; 55% in assay [9]; 51% in [10]; 141% in [11]; 88% in assay [12]. The residual activity in assay [13] worked out at 10%; in [14], 68%; in assay [15], 127%; in assay [16], 79%; in [17] it was 94%.
With `COc1cc2c(Oc3ccc(-c4nc5ccccc5s4)cc3)ncnc2cc1OCCCN1CCCC1`, the residual activity in assay [1] was 84%; in [2] it was 113%; in assay [3], 55%; in assay [4] it was 100%; in assay [5], 36%; in [6], 112%. For the same molecule, the residual activity in assay [7] was found to be 93%; in [8] it was 72%; in assay [9], 101%; in [10] it was 43%; in [11] it was 107%; in assay [12], 82%. The residual activity in assay [13] was 11%; in assay [14], 84%; in [15] it was 135%; in assay [16] it was 94%; in assay [17], 77%.
